The text below walks through data of article PMC11672292, “Discovery of Balasubramide Derivative with Tissue‐Specific Anti‐Inflammatory Activity Against Acute Lung Injury by Targeting VDAC1” (Advanced Science, 2024).

Series [1] has as its system LPS-stimulated RAW264.7 cells. As to the kind of experiment: LPS-induced TNF-α release in RAW264.7 macrophages (ELISA). It counts as cell-based, mouse. The note with it: for IC50: read-out: IC50, inhibition of LPS-induced TNF-α release. As for the experimental part:
The anti‐inflammatory effects of all (+)‐balasubramide derivatives were evaluated in Lipopolysaccharide (LPS, L2630, Sigma–Aldrich, USA)‐induced macrophage inflammation model. RAW264.7 cells were pretreated with various compounds or (+)3C‐20 at different concentrations for 3 h, and then stimulated with LPS (100 ng mL^−1) for 2 h for the detection of pro‐inflammatory factors expressions. Similarly, following 3 h co‐incubation with (+)3C‐20, mouse BMDMs were stimulated with LPS (100 ng mL^−1) for 3 h. TNF‐α protein in the culture medium supernatant was measured by a commercial ELISA kit (#1 217 202, DAKEWE, China) following the manufacture's protocols.
(ELISA stands for enzyme-linked immunosorbent assay.)

For the next series, the system named is RAW264.7 cells. As to the kind of experiment: CCK-8 cell viability assay. Type of series: cell-based, mouse. Particulars: 10 μM, 24 h. As for the experimental part: Cell viability was determined by CCK‐8 assay. RAW264.7 cells or mouse BMDMs cultured in a 96‐well plate were pretreated with various compounds at 10 µM or different concentrations of (+)3C‐20 for 24 h when cells reached 70% confluence and then were treated with DMEM containing 5 µL CCK‐8 reagent (A311, Vazyme, China) in a humidified atmosphere of 5% CO2 and 95% air for 1 h at 37 °C. The UV absorption values of the medium with CCK‐8 were measured at 450 nm in a ThermoFisher plate‐reader (VL0L0TD2, Waltham, USA).
A general note: Formazan colour is commonly taken as a measure of viable cells.

The next series relates to mice. As to the kind of experiment: Acute toxicity (LD50, sequential method), single intravenous injection. The note with it: for Mortality: i.v.

Broadly, the inhibition is the change of the read-out against control, counted positive when it falls. One may read the LD50 as the dose at which mortality reaches 50%. A low value points to greater toxicity. As usually defined, the IC50 is the point on the concentration scale where inhibition reaches its midpoint.

Source text for mice: To test the safety of (+)3C‐20 in mice, as previously reported,^[ [31] ^] we estimated the acute toxicity of (+)3C‐20 in mice using a sequential method.

On to `CN1CCc2c([nH]c3ccccc23)C(c2ccccc2)C(O)C1=O` (single isomer, unassigned; (+)) [(+)3J], for which the “effect on the release of TNF-α” value in series [1] (LPS-induced RAW 264.7 macrophage inflammation model) is “a certain inhibitory effect”. The inhibition at 10 µM in series [1] (Mus musculus, 10 μM + LPS (100 ng/mL), RAW264.7 cells, n = 3, read-out: Inhibition rate (%) of TNF-α release) came out at 19.1 ± 1.83%. The compound also had a cell viability with RAW264.7 cells of 95.09 ± 1.19.

For `O=C(CC(CO)N1CCN(c2ccc(OC(F)(F)F)cc2)CC1)Nc1ccc(Cl)cc1` (stereo not shown) [VBIT-4], the Mortality came to 0 with mice (dosage 60.00 mg/kg), 14.286 in the series with mice (dosage 71.14 mg/kg), 83.333 with mice (dosage 84.34 mg/kg) and 100 with mice (dosage 100.00 mg/kg). In the series with mice (single intravenous injection), this compound yielded an LD50 of 75.828 mg/kg. Further, in series [1] (RAW264.7 cells), the IC50 was 19.8 µM.

As for `O=C(O)CNC(=O)C1(Nc2ccccc2)CCN(Cc2cccc3ccccc23)CC1` [VBIT-12, reference compound], the IC50 in series [1] (RAW264.7 cells) stood at 83.1 µM.
